From patent US9066923B2, “Methods for Alzheimer's disease treatment and cognitive enhancement” (Blanchette Rockefeller Neurosciences Institute, priority 2002, dated 2015)

Experiments:
tumor promotion = conditions: cited from earlier work
patients = conditions: cited from earlier work
sAPPα secretion = sAPPα secretion in cultured human skin fibroblasts (immunoblot, antibody 6E10); format: cell-based
Method: (§1) Cultured skin fibroblasts were obtained from the Coriell Cell Repositories and grown using the general guidelines established for their culture with slight modifications (Cristofalo & Carptentier, 1988; Hirashima et al., 1996). The culture medium in which cells were grown was Dulbecco's modified Eagle's medium (GIBCO) supplemented with 10% calf serum (Biofluids, Inc.). Fibroblasts from control cell lines (AC), cases AG07141 and AG06241, and a familial AD (FAD) case (AG06848) were utilized.

PKCα isozyme [1] = target: T1, PKCα isozyme (Homo sapiens, UniProt P17252); conditions: cited from earlier work
T1 construct: Fibroblasts were washed twice with ice-cold PBS, scraped in PBS, and collected by low-speed centrifugation; endogenous in cells; host or cells: cultured skin fibroblasts from Coriell Cell Repositories (AG07141, AG06241, AG06848)

PKCα isozyme [2] = target: T1, PKCα isozyme; test: PKC translocation to the cell membrane (immunoblot of cytosolic and membranous fractions of fibroblasts); format: cell-based
Method: as §1
Immunoblot experiments were conducted using well-established procedures (Dunbar, 1994). Cells were grown to confluency (˜90%) in 6 cm Petri dishes. […] Fibroblasts were washed twice with ice-cold PBS, scraped in PBS, and collected by low-speed centrifugation. The pellets were re-suspended in the following homogenization buffer: 20 mM Tris-HCl, pH 7.5, 2 mM EDTA, 2 mM EGTA, 5 mM DTT, 0.32 M sucrose, and protease inhibitor cocktail (Sigma). Hemogenates were obtained by sonication, and centrifuged at […] for 20 minutes, and the supernatants were used as the cytosolic fraction. The pellets were homogenized in the same buffer containing 1.0% Triton X-100, incubated in ice for 45 minutes, and centrifuged at ˜12,000 g for 20 minutes. The supernatant from this batch was used as the membranous fraction. After protein determination, 20 μg of protein were diluted in 2× electrophoresis sample buffer (Novex), boiled for 5 minutes, run on 10% acrylamide gel, and transferred electrophoretically to a PVDF membrane. The membrane was saturated with 5% milk blocker by incubating it at room temperature for an hour. The primary antibody for PKC isoform (Transduction Laboratories) was diluted (1:1000) in blocking solution and incubated with the membrane overnight at 4° C. After incubation with the secondary antibody, alkaline phosphatase anti-mouse IgG (Vector Laboratories), the membrane was developed using a chemoluminescent substrate (Vector Laboratories) per the manufacturer's instructions. The band intensities were quantified by densitometry using a BioRad GS-800 calibrated scanning densitometer and Multianalyst software (BioRad).

rats = test: Morris Water Maze; format: in vivo, rat; conditions: intraventricular injection
Excerpt: (See, for example, Hollister, L. E., 1990, Pharmacopsychiat., 23, (Suppl II) 33-36). The available animal models of memory loss and impaired learning involve measuring the ability of animals to remember a discrete event. These tests include the Morris Water Maze and the passive avoidance procedure. In the Morris Water Maze, animals are allowed to swim in a tank divided into four quadrants, only one of which has a safety platform beneath the water. The platform is removed and the animals are tested for how long they search the correct quadrant verse the incorrect quadrants. In the passive avoidance procedure the animal remembers the distinctive environment in which a mild electric shock is delivered and avoids it on a second occasion. A variant of the passive avoidance procedure makes use of a rodent's preference for dark enclosed environments over light open ones. Further discussion can be found in Crawley, J. N., 1981, Pharmacol. Biochem. Behav., 15, 695-699; Costall, B. et al, 1987, Neuropharmacol., 26, 195-200; Costall, B. et al., 1989, Pharmacol. Biochem. Behav., 32, 777-785; Barnes, J. M. et al., 1989, Br. J. Pharmacol., 98 (Suppl) 693P; Barnes, J. M. et al. 1990, Pharmacol. Biochem. Behav., 35, 955-962.
In the present example, rats were injected intraventricularly with bryostatin-1 and trained for 4 days (following standard protocols). Retention was assessed on the 5th day. […] Acquisition of memory was measured as time spent in the relevant quadrant (5th day). […] (See, FIG. 4). Bryostatin is capable of being used at concentrations to improve cognition that are 300 to 300,000 times lower than the concentration used to treat tumors.

[3] = system: patients suffering from moderately advanced Alzheimer's Disease; conditions: 2000 IU/day (Burke et al. 1999); cited from earlier work
[4] = system: diacylglycerol-protein kinase C; conditions: aorta of diabetic rats and cultured rat smooth muscle cells exposed to elevated glucose (Kunisaki et al. 1994); cited from earlier work

CCC/C=C/C=C/C(=O)O[C@H]1/C(=C/C(=O)OC)C[C@H]2C[C@H]([C@@H](C)O)OC(=O)C[C@H](O)C[C@@H]3C[C@H](OC(C)=O)C(C)(C)[C@](O)(C[C@@H]4C/C(=C/C(=O)OC)C[C@H](/C=C/C(C)(C)[C@]1(O)O2)O4)O3 [bryostatin-1]
tumor promotion activity (tumor promotion): devoid of tumor promotion activity | tolerability (patients; 20 μg/m^2 once per week for 3 weeks (Weitman et al. 1999)): well tolerated and were not associated with myalgia or other side effects | maximum-tolerated dose (patients; 1 hour i.v. infusion once every 2 weeks for 6 weeks (Prendville et al. 1993)): 50 μg/m^2 | maximum tolerated dose (patients; once per week for 8 weeks (Jayson et al. 1995)): 25 μg/m^2 | sAPP secretion (sAPPα secretion; 0.1 nM bryostatin-1, compared to vehicle alone and benzolactam): dramatic increase of sAPP secretion | sAPPα secretion, efficacy compared with controls and Benzolactam (FIG. 1) (sAPPα secretion; FIG. 1): greater efficacy at lower concentrations than controls and Benzolactam | sAPP secretion (sAPPα secretion; bryostatin at 0.01 nM): still proved effective to increase sAPP secretion | shape of the dose response curve as PKC activator (PKCα isozyme [1]): biphasic | activation of PKC (immunoblot, FIG. 7) (PKCα isozyme [2]; 0.1 nM bryostatin-1, 30 minutes after delivery): easily detectable | response demonstrating the activation of PKC (FIG. 7) (PKCα isozyme [2]; AD cells, FIG. 7): powerful response | time of maximal PKC translocation to the cell membrane (PKC activation) (PKCα isozyme [2]; bryostatin): 30 min | PKC translocation after the maximum, compared with basal level (PKCα isozyme [2]; partial decline after 30 min, followed up to six hours): remains higher than basal translocation levels up to six hours | memory or retention: time spent in the relevant quadrant (rats; 5th day, versus sham injection): significantly enhanced | time to improved cognition compared to control rats (rats; FIG. 4): ≤ 2 days | learning: escape latency from trial to trial (rats; trained for 4 days, versus sham injection): significantly lower

vitamin E
cognitive abilities [3]: did not enhance cognitive abilities | mortality and morbidity [3]: reduced mortality and morbidity | diacylglycerol-protein kinase C activation [4]: normalize diacylglycerol-protein kinase C activation
